# Results as given in patent publication US9695154B2, “Heteroaryl inhibitors of sumo activating enzyme” (MILLENNIUM PHARMACEUTICALS, INC., priority 2013, dated 2017).
# Molecular target: T1, recombinant human SAE enzyme (Homo sapiens, UniProt Q9UBT2)
# T1 sequence (Q9UBT2 1-640): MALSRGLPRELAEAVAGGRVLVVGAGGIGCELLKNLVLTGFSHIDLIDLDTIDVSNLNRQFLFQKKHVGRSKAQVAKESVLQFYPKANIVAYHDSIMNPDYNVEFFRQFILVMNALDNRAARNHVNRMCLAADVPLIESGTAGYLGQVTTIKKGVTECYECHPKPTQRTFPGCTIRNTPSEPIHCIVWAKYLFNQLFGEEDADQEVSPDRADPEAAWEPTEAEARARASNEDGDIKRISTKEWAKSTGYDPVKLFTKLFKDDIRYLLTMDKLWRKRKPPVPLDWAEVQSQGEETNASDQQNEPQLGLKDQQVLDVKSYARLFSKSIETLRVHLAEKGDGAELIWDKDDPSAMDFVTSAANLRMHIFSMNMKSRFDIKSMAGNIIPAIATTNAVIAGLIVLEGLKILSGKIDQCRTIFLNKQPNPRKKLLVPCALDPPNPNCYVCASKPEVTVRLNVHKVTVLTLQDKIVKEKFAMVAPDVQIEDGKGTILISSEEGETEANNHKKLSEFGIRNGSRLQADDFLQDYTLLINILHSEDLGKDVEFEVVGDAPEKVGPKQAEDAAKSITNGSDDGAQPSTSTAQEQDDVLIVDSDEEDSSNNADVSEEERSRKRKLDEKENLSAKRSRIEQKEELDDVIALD
# T1 sequence (Q9UBE0 1-346 partner): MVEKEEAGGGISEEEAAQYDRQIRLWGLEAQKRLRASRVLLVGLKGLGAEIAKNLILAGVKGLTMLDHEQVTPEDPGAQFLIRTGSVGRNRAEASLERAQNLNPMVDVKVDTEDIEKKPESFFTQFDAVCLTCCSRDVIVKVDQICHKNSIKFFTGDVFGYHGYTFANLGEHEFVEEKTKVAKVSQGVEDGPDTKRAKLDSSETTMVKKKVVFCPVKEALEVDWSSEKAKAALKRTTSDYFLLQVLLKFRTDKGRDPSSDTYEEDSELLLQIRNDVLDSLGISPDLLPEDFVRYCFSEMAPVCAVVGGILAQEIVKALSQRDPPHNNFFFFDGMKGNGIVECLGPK
# Test: SAE HTRF Enzyme Assay
# Type: biochemical
# Settings: for IC50: class symbols A-C; for inhibition at 0.111 µM: compound concentration 0.111 μM, read-out: Percent Inhibition
# Outline: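 Measured as FRET after a 2 h antibody step: SAE (0.11 nM) thioester transfer of Sumo-Flag to Ubc9-GST, 0.5 μM ATP, 24° C for 105 min, quenched with 20 mM EDTA. Output is IC50 or percent inhibition at a single concentration.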
Structure (SMILES),IC50,inhibition at 0.111 µM
"COC(C)(C)C#CCn1ccc(C(=O)c2cncnc2N[C@@H]2C[C@H](COS(N)(=O)=O)[C@@H](O)[C@@H]2F)c1 [Compound I-75, {(1R,2R,3R,4R)-3-fluoro-2-hydroxy-4-[(5-{[1-(4-methoxy-4-methylpent-2-yn-1-yl)-1H-pyrrol-3-yl]carbonyl}pyrimidin-4-yl)amino]cyclopentyl}methyl sulfamate]",10 to 100 nM,68%
"CC(C)(c1ccccc1)n1ccc(C(=O)c2cncnc2N[C@@H]2C[C@H](COS(N)(=O)=O)[C@@H](O)C2)c1 [Compound I-76, {(1R,2S,4R)-2-hydroxy-4-[(5-{[1-(2-phenylpropan-2-yl)-1H-pyrrol-3-yl]carbonyl}pyrimidin-4-yl)amino]cyclopentyl}methyl sulfamate]",10 to 100 nM,80%
"NS(=O)(=O)OC[C@H]1C[C@@H](Nc2ccncc2C(=O)c2ccn(Cc3ccc(Cl)c(Cl)c3)n2)C[C@@H]1O [Compound I-78, {(1R,2S,4R)-4-[(3-{[1-(3,4-dichlorobenzyl)-1H-pyrazol-3-yl]carbonyl}pyridin-4-yl)amino]-2-hydroxycyclopentyl}methyl sulfamate]",< 10 nM,97%
"Cn1cccc(Cn2ccc(C(=O)c3cncnc3N[C@@H]3C[C@H](COS(N)(=O)=O)[C@@H](O)C3)n2)c1=O [Compound I-80, [(1R,2S,4R)-2-hydroxy-4-{[5-({1-[(1-methyl-2-oxo-1,2-dihydropyridin-3-yl)methyl]-1H-pyrazol-3-yl}carbonyl)pyrimidin-4-yl]amino}cyclopentyl]methyl sulfamate]",< 10 nM,96%
"NS(=O)(=O)OC[C@H]1C[C@@H](Nc2ccncc2C(=O)c2ccn(Cc3cccc(Cl)c3)n2)[C@H](O)[C@@H]1O [Compound I-81, {(1R,2R,3S,4R)-4-[(3-{[1-(3-chlorobenzyl)-1H-pyrazol-3-yl]carbonyl}pyridin-4-yl)amino]-2,3-dihydroxycyclopentyl}methyl sulfamate]",< 10 nM,98%
"NS(=O)(=O)OC[C@H]1C[C@@H](Nc2ncncc2C(=O)c2ccn(CC3CCCCC3)n2)[C@H](O)[C@@H]1O [Compound I-82, {(1R,2R,3S,4R)-4-[(5-{[1-(cyclohexylmethyl)-1H-pyrazol-3-yl]carbonyl}pyrimidin-4-yl)amino]-2,3-dihydroxycyclopentyl}methyl sulfamate]",< 10 nM,96%
"NS(=O)(=O)OC[C@H]1C[C@@H](Nc2ccncc2C(=O)c2ccn(Cc3cccc(OC(F)(F)F)c3)c2)C[C@@H]1O [Compound I-83, [(1R,2S,4R)-2-Hydroxy-4-{[3-({1-[3-(trifluoromethoxy)benzyl]-1H-pyrrol-3-yl}carbonyl)pyridin-4-yl]amino}cyclopentyl]methyl sulfamate]",10 to 100 nM,88%
"CC#Cc1cccc(Cn2ccc(C(=O)c3cncnc3N[C@@H]3C[C@H](COS(N)(=O)=O)[C@@H](O)C3)n2)c1 [Compound I-84, [(1R,2S,4R)-2-hydroxy-4-{[5-({1-[3-(prop-1-yn-1-yl)benzyl]-1H-pyrazol-3-yl}carbonyl)pyrimidin-4-yl]amino}cyclopentyl]methyl sulfamate]",< 10 nM,95%
"C#Cc1cccc(Cn2ccc(C(=O)c3cncnc3N[C@@H]3C[C@H](COS(N)(=O)=O)[C@@H](O)C3)n2)c1 [Compound I-85, {(1R,2S,4R)-4-[(5-{[1-(3-ethynylbenzyl)-1H-pyrazol-3-yl]carbonyl}pyrimidin-4-yl)amino]-2-hydroxycyclopentyl}methyl sulfamate]",< 10 nM,98%
"NS(=O)(=O)OC[C@H]1C[C@@H](Nc2ncncc2C(=O)c2ccn(Cc3ccc(C(F)F)o3)c2)[C@@H](F)[C@@H]1O [Compound I-87, [(1R,2R,3R,4R)-4-({5-[(1-{[5-(difluoromethyl)-2-furyl]methyl}-1H-pyrrol-3-yl)carbonyl]pyrimidin-4-yl}amino)-3-fluoro-2-hydroxycyclopentyl]methyl sulfamate]",< 10 nM,> 99%
"NS(=O)(=O)OC[C@H]1C[C@@H](Nc2ncncc2C(=O)c2ccn(Cc3c(F)cc(F)cc3F)n2)[C@H](O)[C@@H]1O [Compound I-88, {(1R,2R,3S,4R)-2,3-dihydroxy-4-[(5-{[1-(2,4,6-trifluorobenzyl)-1H-pyrazol-3-yl]carbonyl}pyrimidin-4-yl)amino]cyclopentyl}methyl sulfamate]",< 10 nM,> 99%
"NS(=O)(=O)OC[C@H]1C[C@@H](Nc2ncncc2C(=O)c2ccn(Cc3ccc(F)c(Cl)c3)n2)[C@H](O)[C@@H]1O [Compound I-89, {(1R,2R,3S,4R)-4-[(5-{[1-(3-chloro-4-fluorobenzyl)-1H-pyrazol-3-yl]carbonyl}pyrimidin-4-yl)amino]-2,3-dihydroxycyclopentyl}methyl sulfamate]",< 10 nM,98%
"NS(=O)(=O)OC[C@H]1C[C@@H](Nc2ncncc2C(=O)c2cc(CO)n(Cc3cccc(Br)c3)n2)C[C@@H]1O [Compound I-90, {(1R,2S,4R)-4-[(5-{[1-(3-Bromobenzyl)-5-(hydroxymethyl)-1H-pyrazol-3-yl]carbonyl}pyrimidin-4-yl)amino]-2-hydroxycyclopentyl}methyl sulfamate]",< 10 nM,98%
"NS(=O)(=O)OC[C@H]1C[C@@H](Nc2ncncc2C(=O)c2ccn(Cc3cc(F)ccc3F)n2)[C@H](O)[C@@H]1O [Compound I-91, {(1R,2R,3S,4R)-4-[(5-{[1-(2,5-difluorobenzyl)-1H-pyrazol-3-yl]carbonyl}pyrimidin-4-yl)amino]-2,3-dihydroxycyclopentyl}methyl sulfamate]",< 10 nM,98%
"NS(=O)(=O)OC[C@H]1C[C@@H](Nc2ncncc2C(=O)c2ccn(Cc3ccc(F)c(Br)c3)n2)[C@@H](F)[C@@H]1O [Compound I-92, {(1R,2R,3R,4R)-4-[(5-{[1-(3-bromo-4-fluorobenzyl)-1H-pyrazol-3-yl]carbonyl}pyrimidin-4-yl)amino]-3-fluoro-2-hydroxycyclopentyl}methyl sulfamate]",< 10 nM,99%
"NS(=O)(=O)OC[C@H]1C[C@@H](Nc2ncncc2C(=O)c2ccn(CC3CCCCC3)n2)C[C@@H]1O [Compound I-93, {(1R,2S,4R)-4-[(5-{[1-(cyclohexylmethyl)-1H-pyrazol-3-yl]carbonyl}pyrimidin-4-yl)amino]-2-hydroxycyclocarbonyl}methyl sulfamate]",< 10 nM,90%
"NS(=O)(=O)OC[C@H]1C[C@@H](Nc2ncncc2C(=O)c2cc(C(F)(F)F)n(Cc3ccccc3)c2)[C@@H](F)[C@@H]1O [Compound I-94, {(1R,2R,3R,4R)-4-[(5-{[1-Benzyl-5-(trifluoromethyl)-1H-pyrrol-3-yl]carbonyl}pyrimidin-4-yl)amino]-3-fluoro-2-hydroxycyclopentyl}methyl sulfamate]",< 10 nM,97%
"NS(=O)(=O)OC[C@H]1C[C@@H](Nc2ncncc2C(=O)c2ccn(Cc3cccc(Cl)n3)n2)C[C@@H]1O [Compound I-95, [(1R,2S,4R)-4-{[5-({1-[(6-chloropyridin-2-yl)methyl]-1H-pyrazol-3-yl}carbonyl)pyrimidin-4-yl]amino}-2-hydroxycyclopentyl]methyl sulfamate]",< 10 nM,99%
"NS(=O)(=O)OC[C@H]1C[C@@H](Nc2ncncc2C(=O)c2ccn(CC(=O)c3cccc(Br)c3)n2)[C@H](O)[C@@H]1O [Compound I-96, [(1R,2R,3S,4R)-4-{[5-({1-[2-(3-bromophenyl)-2-oxoethyl]-1H-pyrazol-3-yl}carbonyl)pyrimidin-4-yl]amino}-2,3-dihydroxycyclopentyl]methyl sulfamate]",< 10 nM,98%
"NS(=O)(=O)OC[C@H]1C[C@@H](Nc2ccncc2C(=O)c2ccn(Cc3ccc(F)c(Cl)c3)n2)C[C@@H]1O [Compound I-97, {(1R,2S,4R)-4-[(3-{[1-(3-Chloro-4-fluorobenzyl)-1H-pyrazol-3-yl]carbonyl}pyridin-4-yl)amino]-2-hydroxycyclopentyl}methyl sulfamate]",< 10 nM,96%
